Data reported in patent US6921772B2, “Methods and compositions for the treatment of chronic lymphocytic leukemia” (Salmedix, Inc., priority 1998, dated 2005).

Tests used:
patient with B-cell CLL = experiment: In vivo administration of NSAIDs to a B-cell CLL patient: blood cell counts
[1] = system: isolated mononuclear cells from the peripheral blood of the patient; experiment: FITC annexin / propidium iodide flow cytometry of the patient's isolated mononuclear cells after etodolac; format: in vivo, human; details: baseline and daily for three days after administration, as lymphocyte count dropped
Protocol: To examine the possibility that a metabolite of etodolac or a serum factor may be necessary to achieve the clinical effect, the in vivo percentages of viable, apoptotic and late apoptotic or necrotic cells of isolated mononuclear cells were measured by flow cytometry using FITC annexin and propridium iodide assay. During early apoptosis and preceding DNA fragmentation, phosphatydylserine becomes exposed and bond by annexin V. Later in apoptosis and in cell necrosis, cells also become permeable to propidium iodide. FITC labeled […] and propidium iodide are easily detected by flow cytometry. Mononuclear cells were isolated from the peripheral blood of the patient by differential centrifugation on ficoll-Hypaque at baseline and then daily for three additional days after administration of etodolac. […] However, the percentage of viable cells increased and the percentage of late apoptotic or necrotic cells decreased. […] To examine the possibility that etodolac might enhance the clearance of leukemic lymphocytes by enhancing phagocytosis by macrophages, TAMRA stained isolated mononuclear cells from the patient were incubated with normal human adherent mononuclear cells in the presence of naproxen or etodolac in vitro. After an overnight incubation, the adherent cells were isolated and analyzed by flow cytometry for uptake of TAMRA stained cells from the patient. No increase in the uptake of the stained leukemic mononuclear cells by the normal adherent cells could be detected for etodolac compared to naproxen. To test the possibility that a metabolite of etodolac could be responsible for the effect, serum from the patient was collected free of drug, after receiving naproxen 375 mg bid for two days and after receiving etodolac 400 mg bid for two days, and tested in the above manner.

[2] = system: normal human adherent mononuclear cells; experiment: Uptake of TAMRA stained patient mononuclear cells by normal adherent mononuclear cells (phagocytosis), flow cytometry; format: cell-based
Protocol: To examine the possibility that a metabolite of etodolac or a serum factor may be necessary to achieve the clinical effect, the in vivo percentages of viable, apoptotic and late apoptotic or necrotic cells of isolated mononuclear cells were measured by flow cytometry using FITC annexin and propridium iodide assay. During early apoptosis and preceding DNA fragmentation, phosphatydylserine becomes exposed and bond by annexin V. Later in apoptosis and in cell necrosis, cells also become permeable to propidium iodide. FITC labeled […] and propidium iodide are easily detected by flow cytometry. Mononuclear cells were isolated from the peripheral blood of the patient by differential centrifugation on ficoll-Hypaque at baseline and then daily for three additional days after administration of etodolac. […] However, the percentage of viable cells increased and the percentage of late apoptotic or necrotic cells decreased. […] After an overnight incubation, the adherent cells were isolated and analyzed by flow cytometry for uptake of TAMRA stained cells from the patient. No increase in the uptake of the stained leukemic mononuclear cells by the normal adherent cells could be detected for etodolac compared to naproxen. […]

[3] = B-cell CLL patient, count after NSAID course, etodolac 300 mg BID, mean +/- SD of 3 experiments

SMILES | effect on lymphocyte count of the patient (in words) (patient with B-cell CLL; summary of Table 1) | effect on white blood cell count of the patient (in words) (patient with B-cell CLL; summary of Table 1) | other results
O=C(O)CCc1nc(-c2ccccc2)c(-c2ccccc2)o1 [Oxaprozin, oxaprozin] | relatively little impact | relatively little impact | 
CCc1cccc2c3c([nH]c12)C(CC)(CC(=O)O)OCC3 (racemic) [Etodolac, 1,8-diethyl-1,3,4,9-tetrahydro[3,4-b]-indole-1-acetic acid] | substantial reductions | substantial reductions | Lymphocyte Ct. x E-3 (patient with B-cell CLL; [3]): 20.68 x E-3; Neutrophil Count x E-3 (patient with B-cell CLL; [3]): 3.58 x E-3; WBC Count x E-3 (patient with B-cell CLL; [3]): 25.27 x E-3; platelet count (in words) (patient with B-cell CLL; Oct. 28, 1997, after 300 mg BID Oct. 25-27, 1997): normal; lymphocyte count (patient with B-cell CLL; Oct. 28, 1997, after 300 mg BID Oct. 25-27, 1997, count before treatment 27.44×E3): 6.70 ×E3; white blood cell count (patient with B-cell CLL; Oct. 28, 1997, after 300 mg BID Oct. 25-27, 1997, count before treatment 34.3×E3): 13.40 ×E3; effect on platelet count (in words) (patient with B-cell CLL; summary of Table 1): increased significantly; percentage of apoptotic cells [1]: remained the same; percentage of late apoptotic or necrotic cells [1]: decreased; percentage of viable cells [1]: increased; uptake of stained leukemic mononuclear cells by normal adherent cells ([2]; drug present in vitro, overnight incubation, compared to naproxen): No increase; phagocytosis of lymphocytes with patient serum ([2]; serum collected after etodolac 400 mg bid for two days, compared with drug-free serum and serum after naproxen 375 mg bid): No enhancement
CN1C(C(=O)Nc2ccccn2)=C(O)c2ccccc2S1(=O)=O [Piroxicam, piroxicam] | relatively little impact | relatively little impact | 
COc1ccc2cc(CCC(C)=O)ccc2c1 [Nabumetone, nabumetone] | relatively little impact | relatively little impact | 
COc1ccc2cc([C@H](C)C(=O)O)ccc2c1 [Naproxen, naproxen] | relatively little impact | relatively little impact | 
CC(C)Cc1ccc(C(C)C(=O)O)cc1 (stereo not shown) [Ibuprofen, ibuprofen] | relatively little impact |  | 
CC1=C(CC(=O)O)c2cc(F)ccc2/C1=C\c1ccc([S+](C)[O-])cc1 (stereo not shown) [Sulindac, sulindac] | relatively little impact | relatively little impact | 
O=C(O)Cc1ccccc1Nc1c(Cl)cccc1Cl [Diclofenac, diclofenac] | relatively little impact | relatively little impact | 
COc1ccc2c(c1)c(CC(=O)O)c(C)n2C(=O)c1ccc(Cl)cc1 [Indomethacin, indomethacin] | relatively little impact | relatively little impact | 
Cc1ccc(C(=O)c2ccc(CC(=O)O)n2C)cc1 [Tolmetin, tolmetin] | relatively little impact | relatively little impact | 
